Laboratory results published in US20240327790A1, “METHODS AND COMPOSITIONS RELATING TO 3-D CULTURES” (PRESIDENT AND FELLOWS OF HARVARD COLLEGE, priority 2021, published 2024).

Tests used:
[1] = test system: human skin models, primary human neonatal keratinocytes; assay: Irritation test (MTT viability) on skin models with neonatal keratinocytes; assay type: cell-based; conditions: 3 mg/mL SDS in PBS, 50 μL on top of 14-day neonatal samples, 18 hours at 37° C., MTT 3 hours, absorbance 490 nm
Procedure: (§1) One potential use-case for these skin models is as an irritation model for pharmaceuticals, cosmetics, or occupational health studies. To evaluate the use of these stamped models in irritation tests, a common test method^21 was adapted. Sodium dodecyl sulfate (SDS) was applied to the top of these samples after 14 days of culture and incubated at 37° C. for 18 hours. After, an MTT assay was used to measure the cell viability. […] If the SDS penetrates through the epidermal barrier, the sample will not be viable and give a low signal in the MTT assay. […] Moreover, the standard for this test method is that the normalized viability reaches 50% between 1-3 mg/mL of SDS added to the samples^21. The samples here met this standard, as the 3 mg/mL neonatal samples have absorbance values greater than 50% of the negative control, and the diabetic sample with 2 mg/mL SDS has absorbance value greater than 50% of the negative control.
(§2) Irritation Test. After keratinocytes had grown for 14 days, 50 μL of SDS at a concentration between 1-3 mg/mL in PBS was applied to the top of each skin sample. 1×PBS was applied as a negative control. […] After the substrate was completely dissolved, 50 μL of isopropanol formazan solution was transferred from each well to a 48 well plate, which was measured on a plate reader using the absorbance setting at 490 nm.

[2] = test system: human skin model, primary human adult diabetic keratinocytes; assay: Irritation test (MTT viability) on skin model with adult diabetic donor keratinocytes; assay type: cell-based; conditions: 2 mg/mL SDS in PBS, 50 μL on top of 14-day diabetic sample, 18 hours at 37° C., MTT 3 hours, absorbance 490 nm
Procedure: as §1, §2

CCCCCCCCCCCCOS(=O)(=O)[O-].[Na+] [SDS, Sodium dodecyl sulfate] was tested, and the “absorbance value (MTT viability) relative to negative control” value [1] was “greater than 50 % of the negative control” and the “absorbance value (MTT viability) relative to negative control” value [2] was “greater than 50 % of the negative control”.
